# Data from PubChem BioAssay (NCI).
#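 96-well plates; 48 h exposure; 5 concentrations. Endpoints by linear interpolation between flanking doses. Not reached: highest tested concentration assigned. GI50 marks 50% less growth. The concentration for full growth arrest is given as TGI.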
# What was measured:
# Experiment in all cases: inhibition of tumour cell growth, NCI panel, 48 h
# SF-295 CNS = test system: SF-295 CNS
# T-47D breast = test system: T-47D breast
# CAKI-1 renal = test system: CAKI-1 renal
# SK-OV-3 ovarian = test system: SK-OV-3 ovarian
# HT29 colon = test system: HT29 colon
# MCF7 breast = test system: MCF7 breast
# MALME-3M melanoma = test system: MALME-3M melanoma
# A498 renal = test system: A498 renal
# SNB-75 CNS = test system: SNB-75 CNS
# HCT-116 colon = test system: HCT-116 colon
SMILES,GI50 (SF-295 CNS) [µM],TGI (SF-295 CNS) [µM],GI50 (T-47D breast),TGI (T-47D breast),GI50 (CAKI-1 renal) [µM],TGI (CAKI-1 renal) [µM],GI50 (SK-OV-3 ovarian),TGI (SK-OV-3 ovarian),GI50 (HT29 colon) [µM],TGI (HT29 colon),GI50 (MCF7 breast) [µM],TGI (MCF7 breast),GI50 (MALME-3M melanoma) [µM],TGI (MALME-3M melanoma) [µM],GI50 (A498 renal),TGI (A498 renal),GI50 (SNB-75 CNS) [µM],TGI (SNB-75 CNS) [µM],GI50 (HCT-116 colon) [µM],TGI (HCT-116 colon) [µM]
CCOc1nc(-c2ccccc2)cc2c(O)c(-c3nnco3)[nH]c(=O)c12,4.28,> 54.4,0.251 µM,9.93 µM,4.15,> 100,10 µM,75.9 µM,> 100,> 100 µM,0.507,> 100 µM,7.58,> 100,2.56 µM,58 µM,1.92,8.99,6.07,> 100
CNCCNc1c2c(c(NCCNC)c3c(CN(C)C)c[nH]c13)C(=O)c1ccccc1C2=O,1.59,9.16,32 µM,> 57.1 µM,4.71,16.8,17.1 µM,50.8 µM,3.41,31.6 µM,0.922,6.7 µM,6.73,15.5,1.41 µM,6.27 µM,7.14,22,1.55,8.29
OCCN1CN(CCO)CN(c2nc(N3CN(CCO)CN(CCO)C3)nc(N3CN(CCO)CN(CCO)C3)n2)C1,–,–,1.06 ng/mL,4.92 ng/mL,–,–,1.39 ng/mL,4.64 ng/mL,–,0.63 ng/mL,–,0.69 ng/mL,–,–,1.61 ng/mL,4.96 ng/mL,–,–,–,–
C[C@H]1c2cccc(O)c2C(O)=C2C(=O)[C@]3(O)C(O)=C(C(N)=O)C(=O)[C@@H](N(C)C)[C@@H]3[C@@H](O)[C@@H]21,2,5.69,3.28 µM,34.8 µM,2.08,8.67,3.38 µM,14.3 µM,3.43,11.9 µM,3.51,28.2 µM,2.76,8.57,2.86 µM,10.4 µM,1.81,6.66,2.89,10.5
CCCCCCCCCC/C=C/CC(=O)SCCNC(=O)CCNC(=O)[C@@H](O)C(C)(C)COP(=O)(O)OP(=O)(O)OCC1OC(n2cnc3c(N)ncnc32)C(O)C1OP(=O)(O)O (some centres undefined),–,> 10,–,> 10 µM,–,> 10,–,> 10 µM,–,> 10 µM,–,> 10 µM,–,> 10,–,> 10 µM,–,> 10,–,> 10
COc1cc(C(=O)c2cc(C)c3[nH]c4ccc(Cl)cc4c3c2C)cc(OC)c1OC,0.0284,0.303,1.84 µM,39.3 µM,0.0521,12.5,0.666 µM,34.7 µM,0.359,10.7 µM,0.0352,13.2 µM,0.0791,15.3,0.0242 µM,0.0805 µM,0.0254,3.96,0.0376,3.19
CCC[CH2][Sn]([CH2]CCC)([CH2]CCC)[O]C(=O)CC,0.238,0.746,0.166 µM,0.385 µM,0.0611,0.214,0.143 µM,0.296 µM,0.13,0.322 µM,–,–,0.151,0.349,0.12 µM,0.256 µM,0.144,0.349,0.138,0.294
C/C(=C\CCc1ccoc1)CC/C=C(\C)CCCC1=CC(=O)OC1,3.79,18,2.27 µM,22.9 µM,5.01,> 100,12.6 µM,50.4 µM,–,–,3.47,36.9 µM,13.7,31.5,1.29 µM,16.5 µM,4.46,52,4.02,18.8
C/C1=C\CC[C@@]2(C)O[C@@H]2[C@H]2OC(=O)[C@@H](CN(C)C)[C@@H]2CC1,32.8,> 100,39.4 µM,> 100 µM,13.2,31.3,27.6 µM,54 µM,19.9,61.4 µM,4.96,> 100 µM,–,–,25.7 µM,44.9 µM,–,–,4.97,20.4
CC/C(=C(/c1ccc(OCCN(C)C)cc1)c1ccc(OC(=O)CCCCC(=O)c2c(C)[nH]c(/C=C3\N=C(c4ccc[nH]4)C=C3OC)c2C)cc1)c1ccccc1,–,–,1.37 µM,6.02 µM,6.27,36.1,14.1 µM,27 µM,2.99,14.7 µM,0.0544,1.2 µM,9.28,34.4,12.8 µM,26.1 µM,8.17,23.2,3.55,13.9
C=C(C)[C@@]12OC3(/C=C/C=C/CCCCC)O[C@@H]1[C@@H]1[C@@H]4O[C@]4(CO)[C@@H](O)[C@]4(O)C(=O)C(C)=C[C@H]4[C@@]1(O3)[C@H](C)[C@H]2OC(=O)c1ccccc1,< 0.01,4.9,2.2 µM,7.25 µM,< 0.01,0.0347,2.44 µM,4.9 µM,1.4,2.94 µM,1.55,3.31 µM,11.3,26.9,< 0.01 µM,–,–,–,1.65,3.33
CCOC(=O)/C=C/C(C(=O)/C=C/c1ccc(OC2CCCCO2)c(OC)c1)=C(O)\C=C\c1ccc(OC2CCCCO2)c(OC)c1 (centres undefined),10.7,42.8,15.1 µM,60.3 µM,4.97,> 100,23.1 µM,> 100 µM,1.94,4.51 µM,4.42,36.2 µM,2.07,5.9,18.3 µM,35.7 µM,–,–,2.09,4.76
Cc1c2cccnc2c(C)c2c1c1cc(CO)ccc1n2C,1.74,10.1,0.989 µM,4.97 µM,2.06,10.5,2.14 µM,6.95 µM,1.92,10.6 µM,0.501,12.7 µM,1.93,7.82,0.104 µM,0.243 µM,–,–,0.42,3.26
C=C(C=O)C1CCC2(C(=O)O)CCC3(C)C(CCC4C5(C)CCC(O)C(C)(C)C5CCC43C)C12 (centres undefined),3.39,15.1,5.19 µM,34.1 µM,–,–,7.37 µM,19.6 µM,2.65,7.39 µM,2.76,14.3 µM,2.33,7.99,4.77 µM,14.4 µM,10.8,32.6,1.4,2.83
O=S(=O)(Nc1cc(F)cc(Cl)c1)c1ccc(-c2cnc(C3CC3)o2)cc1,0.389,10.3,1.7 µM,33.5 µM,0.595,17.5,4.84 µM,25.9 µM,0.515,10.6 µM,0.485,23 µM,2.53,28,–,–,0.344,3.33,0.719,16.4
CC(C)(C)C(=O)OCOP(=O)(OCOC(=O)C(C)(C)C)C1CCCN(O)C1=O (centres undefined),3.9,> 100,0.543 µM,17.8 µM,0.324,> 100,0.508 µM,8.81 µM,0.335,8.53 µM,0.338,3.86 µM,0.425,5.81,–,–,1.43,28.6,–,–
C=CC1CC12C(=O)C1OC2(C)C2C(=O)c3cc4ccccc4cc3C(=O)C12 (centres undefined),–,–,23.1 µM,> 100 µM,12,35.7,48.1 µM,> 100 µM,27.5,> 100 µM,16.1,> 100 µM,16.8,57.4,–,–,35.5,> 100,33.5,> 100
Cc1nnc(S(=O)(=O)c2ccc(N=Nc3c(N)nc(N)nc3N)cc2)s1,–,> 100,–,> 100 µM,–,> 100,–,> 100 µM,–,> 100 µM,–,> 100 µM,–,> 100,–,> 100 µM,–,–,–,> 100
CCCCc1c(OC)cc(O)c2c1C(=O)c1[nH]c(C(=O)O)c(O)c(=O)c1C2=O,–,> 100,–,> 100 µM,–,> 100,–,18.6 µM,–,> 100 µM,–,> 100 µM,–,–,–,–,–,27.5,–,> 100
CC(C)=C[C@@H]1C[C@H](C)[C@H]2CC[C@H](C)C3=C2[C@](O)(OC3=O)[C@]1(C)O,> 100,> 100,> 100 µM,> 100 µM,> 100,> 100,> 100 µM,> 100 µM,> 100,> 100 µM,71.5,> 100 µM,> 100,> 100,–,–,> 100,> 100,> 100,> 100
